Results as given in article PMC5666312, “Profiling MHC II immunopeptidome of blood‐stage malaria reveals that cDC1 control the functionality of parasite‐specific CD4 T cells” (EMBO Molecular Medicine, 2017).
Where no end group is shown, it is not given here.

Target: T1, I‐A^b MHC II molecules (Mus musculus, UniProt P14434+P14483)
T1 construct: endogenous in cells; host or cells: mouse B-cell lymphoma LB27.4
T1 sequence (P14434 24-256): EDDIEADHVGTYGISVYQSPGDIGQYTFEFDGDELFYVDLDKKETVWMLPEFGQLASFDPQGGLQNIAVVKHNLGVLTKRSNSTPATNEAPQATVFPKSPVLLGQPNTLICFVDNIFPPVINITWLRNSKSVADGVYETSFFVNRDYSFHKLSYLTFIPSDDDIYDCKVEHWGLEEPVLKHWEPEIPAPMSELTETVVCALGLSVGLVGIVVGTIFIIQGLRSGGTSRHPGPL
T1 sequence (P14483 28-265): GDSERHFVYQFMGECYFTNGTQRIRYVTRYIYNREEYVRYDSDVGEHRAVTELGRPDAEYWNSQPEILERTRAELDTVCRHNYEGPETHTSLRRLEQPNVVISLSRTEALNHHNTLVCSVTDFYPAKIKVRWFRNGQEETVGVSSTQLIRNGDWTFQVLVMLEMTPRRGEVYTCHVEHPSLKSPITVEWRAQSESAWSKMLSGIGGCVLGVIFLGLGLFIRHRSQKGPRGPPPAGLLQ
Test: I-A^b binding assay: inhibition of binding of a high-affinity radiolabeled peptide
Conditions: competition with radiolabeled peptide ROIV (0.1–1 nM); purified I-A^b from LB27.4 B-cell lymphoma; room temperature, 2-day incubation; six concentrations; IC50 approximates Kd
Experimental: We used mass spectrometry to globally characterize Pb antigenic peptides presented by MHC II on the surface of DC (Fig 1A). We immunoprecipitated the MHC II molecules from a splenic DC tumor cell line called MutuDC (Fuertes Marraco et al, 2012), incubated with Pb‐parasitized RBC (pRBC). Peptide‐loaded MHC II are trimers of I‐A^bα chain, I‐A^bβ chain, and antigenic peptide, which, depending on the affinity of the loaded peptide, can remain stable in SDS without prior boiling (Natarajan et al, 1999). To ensure that our protocol allowed the pull‐down of peptide‐MHC II trimers and not just of single I‐A^bβ chain, we compared the migration of eluates with and without prior boiling, confirming that the immunoprecipitated material was SDS‐stable (Fig 1B). Although genetically very close to PbA (Otto et al, 2014), several variants of Pb causing different pathophysiological outcomes have been described (de Souza et al, 2010). Pb K173 (PbK) being the most “distant” from PbA (although SNPs were found only in 469 of […]; Otto et al, 2014), we decided to perform this analysis both with PbA and PbK pRBC. This led to the identification of a total of 372 unique I‐A^b‐eluted peptides, comprising 330 mouse sequences and 42 Pb sequences (Fig 1C, Dataset EV1), derived from 13 putative Pb antigenic proteins (Dataset EV2). In line with the modest level of polymorphisms between PbA and PbK, none of those source antigens was polymorphic. Remarkably, for seven antigens, we recovered multiple peptides containing a core of 11–16 amino acids (aa) and various N‐ or C‐terminal extensions (Dataset EV2). This feature is a typical property of MHC II ligands (Bozzacco et al, 2011; Sofron et al, 2016). For each set of nested peptides, we further analyzed the longest spanning sequence comprising all recovered sequences, for example, NALYNYSIPRPNVTSNL for ETRAMP10.2 (PBANKA_0517000) or […] for LDH (PBANKA_1340100), resulting in a consolidated list of 14 peptides (Table 1). We evaluated the I‐A^b binding affinity of these 14 peptides by quantifying their ability to inhibit binding of a high‐affinity radiolabeled peptide (Sidney et al, 2013).
Purification of I‐A^b MHC II molecules by affinity chromatography and the assay based on the inhibition of binding of a high‐affinity radiolabeled peptide to quantitatively measure peptide binding were described elsewhere (Sidney et al, 2013). Briefly, the mouse B‐cell lymphoma LB27.4 was used as a source of MHC molecules. A high‐affinity radiolabeled peptide (0.1–1 nM; peptide ROIV, sequence YAHAAHAAHAAHAAHAA) was co‐incubated at room temperature with purified MHC in the presence of a cocktail of protease inhibitors and an inhibitor peptide. Following a 2‐day incubation, MHC‐bound radioactivity was determined by capturing MHC/peptide complexes on mAb (Y3JP)‐coated Lumitrac 600 plates (Greiner Bio‐one), and measuring bound cpm using the TopCount (Packard Instrument Co) microscintillation counter. The concentration of peptide yielding 50% inhibition of the binding of the radiolabeled peptide was calculated. Under the conditions utilized, where [label] < [MHC] and IC50 ≥ [MHC], the measured IC50 values are reasonable approximations of the true Kd values. Each competitor peptide was tested at six different concentrations covering a 100,000‐fold range. The “cold” probe was used as a positive control in each experiment.

LSEVVIHPETNYALTG [M1]
IC50: 15900 nM

KILYNSAKPNSDLH [END70]
IC50: 478 nM

NALYNYSIPRPNVTSNL [ETRAMP]
IC50: 87 nM

DNEYDFSGKAALVYGQ [ATPSYN]
IC50: 104 nM

GINHEKYNSSQTIVSNAS [GAPDH.1]
IC50: 2420 nM

TEVPSLVPPTTNTSHAAPAH [MAHRP]
IC50: 872 nM

GGSTYIAAKVNEAKD [TIM14]
IC50: 302 nM

APSEQTTTPEAATAASN [MSP1]
IC50: 1350 nM

LHASPYVAPAAAIIEMAE [LDH]
IC50: 110 nM

INDRNFIATTALSSTEE [AMA1]
IC50: 818 nM

LIPEYNEAAIMLSEKK [PDI]
IC50: 166 nM

TTLGIFRAAVPSGASTG [ENO]
IC50: 115 nM

LMTTVHASTANQLVV [GAPDH.2]
IC50: 980 nM

SGKVVEENPKAIKSGDS [EF1a]
IC50: 2700 nM
